Values belong to the compound of their own block, whether it stands above or below them.
Columns and labels:
Annexin A2/S100-A10 = Annexin A2/S100-A10 (Homo sapiens, UniProt P07355+P60903); experiment: Inhibition of Annexin A2/Protein S100-A10 (unknown origin) protein interaction by competitive fluorescent binding assay
[1] = target: Tumour suppressor protein p53/Mdm4 (Homo sapiens, UniProt O15151+P04637); experiment: Inhibition of MDMX/p53 (unknown origin) interaction; format: protein assay
Neuropilin-1 = Neuropilin-1 (Homo sapiens, UniProt O14786); experiment: Binding affinity to NRP1 (unknown origin) assessed as reduction in […]VEGFA (165) protein interaction
[2] = Antiproliferative activity against breast cancer cells (unknown origin); format: functional, cell-based; conditions: Cancer cell lines
[3] = target: T1, Urokinase plasminogen activator surface receptor (Homo sapiens, UniProt Q03405); experiment: Binding affinity to uPAR (unknown origin)
[4] = target: T1, Urokinase plasminogen activator surface receptor; experiment: Binding affinity to uPAR (unknown origin) assessed as reduction in uPA-uPAR protein interaction
[5] = Inhibition of HIV1 gp41; set-up: species or system Human immunodeficiency virus 1
Keap1/Nrf2 = Keap1/Nrf2 (Homo sapiens, UniProt Q14145+Q16236); experiment: Inhibition of Nrf2/Keap1 (unknown origin) protein interaction by fluorescence anisotropy method; format: protein assay
[6] = Binding affinity to IFNalpha (unknown origin) assessed as reduction in IFNalpha/IFNAR2 interaction; set-up: species or system Homo sapiens
Alpha-crystallin B chain = target: T2, Alpha-crystallin B chain (Homo sapiens, UniProt P02511); experiment: Binding affinity to CRYAB (unknown origin) assessed as reduction in CRYAB-VEGFA protein interaction
T2 sequence (P02511 whole entry): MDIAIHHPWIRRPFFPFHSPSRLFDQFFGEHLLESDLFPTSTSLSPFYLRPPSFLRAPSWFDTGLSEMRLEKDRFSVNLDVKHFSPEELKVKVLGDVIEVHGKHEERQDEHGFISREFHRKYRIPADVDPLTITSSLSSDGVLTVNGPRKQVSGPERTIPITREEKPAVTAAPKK

MCF7 = experiment: Cytotoxicity against human MCF7 cells; format: functional, cell-based
[7] = target: Tumour suppressor p53/oncoprotein Mdm2 (Homo sapiens, UniProt P04637+Q00987); experiment: Inhibition of MDM2/p53 (unknown origin) interaction by fluorescence polarization assay; format: protein assay
Chain of Tumour suppressor p53/oncoprotein Mdm2 (P04637 whole entry): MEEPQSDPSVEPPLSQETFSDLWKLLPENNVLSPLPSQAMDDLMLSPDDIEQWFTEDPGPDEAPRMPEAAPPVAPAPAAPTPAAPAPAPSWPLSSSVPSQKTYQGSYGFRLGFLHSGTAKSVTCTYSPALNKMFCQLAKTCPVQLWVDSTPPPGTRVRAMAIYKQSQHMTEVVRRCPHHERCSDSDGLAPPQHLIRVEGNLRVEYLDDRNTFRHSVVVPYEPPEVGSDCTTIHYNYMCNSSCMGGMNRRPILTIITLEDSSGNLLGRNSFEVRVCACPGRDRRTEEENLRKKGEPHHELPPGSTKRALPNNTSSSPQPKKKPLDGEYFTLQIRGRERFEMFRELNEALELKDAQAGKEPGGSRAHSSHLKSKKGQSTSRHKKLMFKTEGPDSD
Chain of Tumour suppressor p53/oncoprotein Mdm2 (Q00987 whole entry): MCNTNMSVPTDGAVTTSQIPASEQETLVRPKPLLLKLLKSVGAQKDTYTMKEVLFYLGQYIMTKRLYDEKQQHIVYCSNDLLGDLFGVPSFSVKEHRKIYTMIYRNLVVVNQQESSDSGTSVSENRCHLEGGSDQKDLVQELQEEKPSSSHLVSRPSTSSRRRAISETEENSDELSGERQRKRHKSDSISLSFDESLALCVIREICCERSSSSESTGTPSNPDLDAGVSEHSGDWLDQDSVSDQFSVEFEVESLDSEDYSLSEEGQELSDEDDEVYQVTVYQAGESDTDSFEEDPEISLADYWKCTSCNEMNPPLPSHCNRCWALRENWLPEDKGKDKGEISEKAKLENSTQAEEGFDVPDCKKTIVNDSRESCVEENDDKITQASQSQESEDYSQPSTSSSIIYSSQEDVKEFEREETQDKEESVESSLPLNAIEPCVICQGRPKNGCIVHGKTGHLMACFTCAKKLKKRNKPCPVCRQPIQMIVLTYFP

T1 sequence (Q03405 whole entry): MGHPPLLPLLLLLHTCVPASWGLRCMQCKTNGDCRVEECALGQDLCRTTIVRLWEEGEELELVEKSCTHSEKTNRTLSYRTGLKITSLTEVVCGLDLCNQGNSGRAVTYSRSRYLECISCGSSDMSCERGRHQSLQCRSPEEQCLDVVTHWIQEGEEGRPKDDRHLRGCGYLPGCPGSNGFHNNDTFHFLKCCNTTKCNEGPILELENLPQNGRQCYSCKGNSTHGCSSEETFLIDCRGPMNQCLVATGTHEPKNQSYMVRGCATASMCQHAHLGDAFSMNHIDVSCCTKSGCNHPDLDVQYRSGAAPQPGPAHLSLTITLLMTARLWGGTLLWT
Chain of Neuropilin-1 (O14786 whole entry): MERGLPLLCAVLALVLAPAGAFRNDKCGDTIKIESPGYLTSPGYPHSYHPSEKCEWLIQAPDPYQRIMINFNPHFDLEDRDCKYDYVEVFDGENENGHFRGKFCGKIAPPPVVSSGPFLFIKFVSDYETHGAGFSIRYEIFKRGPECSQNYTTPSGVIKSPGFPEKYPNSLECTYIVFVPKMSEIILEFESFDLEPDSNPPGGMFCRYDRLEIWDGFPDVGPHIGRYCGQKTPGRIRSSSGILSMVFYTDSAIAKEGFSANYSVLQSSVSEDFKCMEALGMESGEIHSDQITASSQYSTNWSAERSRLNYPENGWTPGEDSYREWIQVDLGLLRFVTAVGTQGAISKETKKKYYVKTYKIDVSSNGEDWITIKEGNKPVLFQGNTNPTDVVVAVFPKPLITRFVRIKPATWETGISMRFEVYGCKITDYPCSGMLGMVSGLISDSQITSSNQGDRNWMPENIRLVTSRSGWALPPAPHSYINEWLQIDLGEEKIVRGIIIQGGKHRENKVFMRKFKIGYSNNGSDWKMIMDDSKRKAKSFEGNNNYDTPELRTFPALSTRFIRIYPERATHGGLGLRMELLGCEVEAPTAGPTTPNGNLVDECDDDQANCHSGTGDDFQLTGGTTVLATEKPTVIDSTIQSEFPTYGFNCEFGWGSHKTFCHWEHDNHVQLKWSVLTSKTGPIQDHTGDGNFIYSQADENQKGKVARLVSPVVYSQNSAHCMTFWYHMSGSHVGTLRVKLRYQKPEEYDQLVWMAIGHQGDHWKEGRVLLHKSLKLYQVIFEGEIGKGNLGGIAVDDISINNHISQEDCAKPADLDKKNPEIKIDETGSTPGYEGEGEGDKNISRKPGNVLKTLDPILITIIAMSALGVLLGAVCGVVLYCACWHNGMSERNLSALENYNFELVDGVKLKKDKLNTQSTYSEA
Chain of Tumour suppressor protein p53/Mdm4 (P04637 whole entry): as the sequence (P04637 whole entry) above
Chain of Tumour suppressor protein p53/Mdm4 (O15151 whole entry): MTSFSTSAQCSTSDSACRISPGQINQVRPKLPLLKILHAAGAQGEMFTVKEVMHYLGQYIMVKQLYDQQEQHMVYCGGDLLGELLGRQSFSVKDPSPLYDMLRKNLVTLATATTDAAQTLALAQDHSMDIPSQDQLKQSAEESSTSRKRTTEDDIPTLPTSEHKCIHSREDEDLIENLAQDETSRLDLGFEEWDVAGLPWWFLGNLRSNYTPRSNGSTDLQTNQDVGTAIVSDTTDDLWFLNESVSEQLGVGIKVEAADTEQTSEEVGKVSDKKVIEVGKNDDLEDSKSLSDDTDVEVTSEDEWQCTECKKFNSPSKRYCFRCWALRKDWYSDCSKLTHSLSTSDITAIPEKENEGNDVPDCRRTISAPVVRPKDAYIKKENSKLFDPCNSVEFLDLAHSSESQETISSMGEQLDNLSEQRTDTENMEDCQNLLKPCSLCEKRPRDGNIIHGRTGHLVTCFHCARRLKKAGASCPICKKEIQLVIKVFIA
Chain of Keap1/Nrf2 (Q16236 whole entry): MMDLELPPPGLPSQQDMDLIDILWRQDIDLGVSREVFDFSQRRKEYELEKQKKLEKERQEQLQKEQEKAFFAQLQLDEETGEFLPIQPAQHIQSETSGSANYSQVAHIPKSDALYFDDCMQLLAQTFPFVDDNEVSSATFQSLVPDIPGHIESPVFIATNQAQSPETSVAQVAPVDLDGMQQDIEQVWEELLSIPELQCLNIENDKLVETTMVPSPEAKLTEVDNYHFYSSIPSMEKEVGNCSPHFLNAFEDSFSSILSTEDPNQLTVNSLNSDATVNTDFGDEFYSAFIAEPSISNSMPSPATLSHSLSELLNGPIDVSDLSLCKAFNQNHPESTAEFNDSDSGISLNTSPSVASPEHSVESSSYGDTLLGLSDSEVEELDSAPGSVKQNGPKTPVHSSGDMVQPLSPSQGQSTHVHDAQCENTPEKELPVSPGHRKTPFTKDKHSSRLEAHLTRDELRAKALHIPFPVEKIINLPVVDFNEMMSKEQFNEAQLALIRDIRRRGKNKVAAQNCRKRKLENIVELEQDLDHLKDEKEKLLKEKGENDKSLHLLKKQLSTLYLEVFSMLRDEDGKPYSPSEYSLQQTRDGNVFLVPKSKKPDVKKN
Chain of Keap1/Nrf2 (Q14145 whole entry): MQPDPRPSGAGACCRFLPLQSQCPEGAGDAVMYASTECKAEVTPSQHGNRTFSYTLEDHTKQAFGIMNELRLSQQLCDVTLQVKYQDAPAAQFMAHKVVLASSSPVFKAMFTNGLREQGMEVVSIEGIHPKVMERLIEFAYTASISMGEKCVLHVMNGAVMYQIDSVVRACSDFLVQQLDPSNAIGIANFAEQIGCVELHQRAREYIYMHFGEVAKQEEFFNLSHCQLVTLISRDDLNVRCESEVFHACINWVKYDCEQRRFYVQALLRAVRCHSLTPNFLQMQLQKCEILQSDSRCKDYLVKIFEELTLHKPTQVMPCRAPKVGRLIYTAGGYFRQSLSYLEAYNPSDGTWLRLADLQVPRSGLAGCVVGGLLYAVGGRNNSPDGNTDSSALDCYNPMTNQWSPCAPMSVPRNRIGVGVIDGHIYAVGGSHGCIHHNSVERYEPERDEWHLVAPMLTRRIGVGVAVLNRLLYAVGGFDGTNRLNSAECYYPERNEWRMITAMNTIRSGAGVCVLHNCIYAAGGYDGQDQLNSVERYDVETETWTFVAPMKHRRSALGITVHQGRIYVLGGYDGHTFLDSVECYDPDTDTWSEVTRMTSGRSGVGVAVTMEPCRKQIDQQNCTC
Chain of Annexin A2/S100-A10 (P07355 whole entry): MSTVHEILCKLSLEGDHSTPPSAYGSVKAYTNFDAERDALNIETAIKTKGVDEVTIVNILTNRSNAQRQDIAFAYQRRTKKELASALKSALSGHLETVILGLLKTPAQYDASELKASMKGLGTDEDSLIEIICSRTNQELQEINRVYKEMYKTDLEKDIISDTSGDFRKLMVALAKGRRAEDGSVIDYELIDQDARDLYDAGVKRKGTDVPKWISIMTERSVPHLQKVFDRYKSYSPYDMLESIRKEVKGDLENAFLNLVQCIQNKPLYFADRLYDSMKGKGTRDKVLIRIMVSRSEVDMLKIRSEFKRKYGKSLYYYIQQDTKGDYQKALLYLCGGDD
Chain of Annexin A2/S100-A10 (P60903 whole entry): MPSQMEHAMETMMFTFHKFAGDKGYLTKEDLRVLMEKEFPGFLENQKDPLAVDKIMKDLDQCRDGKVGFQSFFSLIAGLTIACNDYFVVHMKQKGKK

Structure (SMILES): Cc1ccccc1OCc1nnc(SCC(N)=O)[nH]1
IC50 (Annexin A2/S100-A10): 24 µM

Structure (SMILES): C[C@H](CCC(=O)O)[C@H]1CC[C@H]2[C@@H]3CC[C@@H]4C[C@H](O)CC[C@]4(C)[C@H]3CC[C@]12C [LITHOCHOLIC ACID]
Kd [1]: 15 µM

Structure (SMILES): O=C(NC(=S)Nc1cccc(-c2nc3ccccc3[nH]2)c1)c1ccc2c(c1)OCCO2
IC50 (Neuropilin-1): 9.3 µM | IC50 [2]: 200 nM

Structure (SMILES): C[C@H]1C[C@H](C)CN(c2cc(Nc3ccccc3C(=O)O)c3c4c(onc24)-c2ccccc2C3=O)C1
Kd [3]: 310 nM | IC50 [4]: 10 µM

Structure (SMILES): CCC(CC)c1ccc(S(=O)(=O)Nc2cc(Sc3nc[nH]n3)c(O)c3ccccc23)cc1
Kd (Keap1/Nrf2): 2900 nM

Structure (SMILES): CC(CC(=O)O)C(N)C(=O)O (configuration not stated)
IC50 (Alpha-crystallin B chain): 20 µM

Structure (SMILES): COC(=O)[C@@H](CCCCNC(=O)OC(C)(C)C)NC(=O)CI
EC50 (MCF7): 640 nM

Next, values leading:

Ki [5]: 1500 nM
Structure (SMILES): CC(C)C[C@H](NC(=O)c1ccc(NC(=O)[C@@H](N)Cc2c[nH]c3ccccc23)c(OCCc2c[nH]c3ccccc23)c1)C(=O)O

IC50 [6]: 4 µM
Structure (SMILES): CNCc1ccccc1Cc1cccc2ccccc12

Ki [7]: 180 nM
Structure (SMILES): O=C(O)c1ccccc1/N=N/C(=N\Nc1cc(S(=O)(=O)O)ccc1O)c1ccccc1
